Laboratory results: BindingDB's records for doi:10.1016/S0960-894X(01)80770-8 (1993)
Where a name gives a salt, the structure may show the parent alone.

Experiments:
[1] = target: S-adenosylmethionine decarboxylase proenzyme (Escherichia coli) (UniProt P0A7F6); experiment: Compound was evaluated for its inhibitory activity against AdoMet-DC from Escherichia coli
[2] = Compound was evaluated to inactivate the bacterial AdoMet-DC

Sequence of S-adenosylmethionine decarboxylase proenzyme (Escherichia coli) (P0A7F6 whole entry, looked up): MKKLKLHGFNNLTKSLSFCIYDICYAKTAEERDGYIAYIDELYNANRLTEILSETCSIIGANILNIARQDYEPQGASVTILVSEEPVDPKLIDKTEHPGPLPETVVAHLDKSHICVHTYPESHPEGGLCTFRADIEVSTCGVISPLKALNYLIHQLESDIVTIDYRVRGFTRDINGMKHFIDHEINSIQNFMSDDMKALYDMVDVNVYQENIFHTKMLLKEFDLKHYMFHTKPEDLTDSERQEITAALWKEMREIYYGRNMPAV

SMILES | IC50 [1] | Ki [2]
N#CC(N)CCSC[C@H]1O[C@@H](n2cnc3c(N)ncnc32)[C@H](O)[C@@H]1O (stereo not given in full) | 179 µM | 
N#CC(N)CCCSC[C@H]1O[C@@H](n2cnc3c(N)ncnc32)[C@H](O)[C@@H]1O (stereo not given in full) | 205 µM | 
C[S+](CCC(N)C#N)C[C@H]1O[C@@H](n2cnc3c(N)ncnc32)[C@H](O)[C@@H]1O (stereo partly drawn) [2-amino-4-({[(2S,3S,4R)-5-(6-amino-9H-purin-9-yl)-3,4-dihydroxyoxolan-2-yl]methyl}(methyl)-sulfanyl)butanenitrile dihydrobromide] | 9 µM | 31.1 µM
C[S+](CCCC(N)C#N)C[C@H]1O[C@@H](n2cnc3c(N)ncnc32)[C@H](O)[C@@H]1O (stereo partly drawn) [2-amino-5-({[(2S,3S,4R)-5-(6-amino-9H-purin-9-yl)-3,4-dihydroxyoxolan-2-yl]methyl}(methyl)-sulfanyl)pentanenitrile dihydrobromide] | 50 µM | 
